Results: paper PMC6811792, “The Binding Affinity of Small Molecules with Yam Tyrosinase (Catechol Oxidase): A Biophysical Study” (Biochemistry Research International, 2019)
Where two headings read alike, the source gives them in different places.

Experiments:
yam tyrosinase [1] = assay: SPR interaction kinetics of single analytes with immobilized yam tyrosinase, two-state model; type: binding, Amorphophallus paeoniifolius
Experimental: SPR interaction studies were carried out using a Biocore X100 optical biosensor (GE Healthcare Life Sciences, Uppsala, Sweden). All the SPR measurements were performed in phosphate buffer saline (PBS; 10.1 mM Na2PO4, 1.8 mM KH2PO4, 137 mM NaCl, 2.7 mM KCl, pH 7.4, 0.005% P20). Initially, working dilutions were prepared from the analyte stock solution in PBS only and then allowed to flow through the sensor surface. Biocore control software version 2.2 was used for data collection. Refractive index changes as a function of time under constant flow condition are monitored by the system, and accordingly, experiments were performed. […] There is an inline subtraction of reference surface during the run. This change is usually reported in terms of response units (RUs). The surface of the chip is washed with PBS (running buffer) between each concentration.
The method of amine coupling was employed for the immobilization of yam tyrosinase which was dissolved (50 μg/mL) in 0.1 M sodium acetate buffer with pH value 4.5 as per the pH scouting study in [15]. Yam tyrosinase was immobilized on sensor chip series S CM5. Flow cell on the chip surface was activated for 7 min using a 1 : 1 mixture of 100 mM […] (EDC) and 100 mM N-hydroxysuccinimide (NHS) (both dissolved in water), and subsequently, tyrosinase was injected for 7 min, followed by injection of 1 M ethanolamine, pH 8.5 to block nonreactive sites. For this study, flow cell 3 was blank immobilized (without protein) as reference.
Crocin and kojic acid are natural tyrosinase inhibitors, whereas hydroquinone is a synthetic inhibitor. The grouping of inhibitors was simply based on the efficiency, size, solubility, and origin of inhibitors. […] PBS was used as the running buffer. The flow rate was constant (45 μL/min) throughout the experiment. The contact time (association time) and dissociation time were fixed to 120 s. Experiments were performed with different concentrations of individual inhibitors based on their solubilities: crocin (0.156–2.5 mM), hydroquinone (0.625–10 mM), kojic acid ([…]), and L-DOPA (5–80 mM). These concentrations were optimized by repeating the SPR experiments several times to achieve appropriate binding interactions. […] Regeneration was carried out with 10 mM glycine pH 2.5 for 30 s. Binding analysis was evaluated using the heterogeneous analyte kinetics model. After each cycle of regeneration, the activity of the enzyme was checked by injecting a single concentration of L-DOPA, and RU response was observed. The data analyses were done with Biacore X100 evaluation software version 2.2, and data were fit to two-state binding and/or heterogeneous analyte binding.
Flow rate was maintained at 45 μL/min. Contact time and dissociation time were kept at 120 s and 200 s. Regeneration was carried out using 10 mM glycine HCl at pH 2.5 for 30 s and at 30 μL/min. The data analysis was performed with Biacore X100 evaluation software version 2.0.1, and data were fit to two states. Each concentration represents sensorgram in the increasing order of curves. Crocin with concentrations (0.156, 0.312, 0.625, 1.25, and 2.5 mM) was injected over the enzyme surface (a). Kojic acid with concentrations (0.0156, 0.0312, 0.0625, 0.125, and 0.25 mM) was injected over the enzyme surface (b). Hydroquinone with concentrations (0.625, 1.25, 2.5, 5.0, and 10 mM) was injected over enzyme surface (c). L-DOPA with concentrations (5, 10, 20, 40 and 80 mM) was injected over the enzyme surface (d).

yam tyrosinase [2] = assay: Diphenolase activity assay (dopachrome at 475 nm, L-DOPA substrate); type: biochemical, Amorphophallus paeoniifolius; settings: 2 mM L-DOPA, pH 7.0, 30°C
Experimental: The reaction mixture (3 mL) contained 2 mM of L-DOPA in 50 mM potassium phosphate buffer (pH 7.0); a portion of 100 μL of the enzyme was used for the activity assay. The reaction was carried out at a constant temperature of 30°C using a Shimadzu UV visible spectrophotometer. IC50 values were calculated as per the formula reported earlier.

yam tyrosinase [3] = target: yam tyrosinase; design: method as in PMID 29246874; settings: SPR, two-state model, substrate; cited from earlier work

| SMILES | Kd (yam tyrosinase [1]; PBS pH 7.4) [µM] | k a1 (yam tyrosinase [1]; PBS pH 7.4) [M⁻¹ s⁻¹] | k a2 (yam tyrosinase [1]; PBS pH 7.4) [s⁻¹] | k d1 (yam tyrosinase [1]; PBS pH 7.4) [s⁻¹] | k d2 (yam tyrosinase [1]; PBS pH 7.4) [s⁻¹] | Kd (yam tyrosinase [1]; PBS pH 7.4, listed as crocin) [µM] | IC50 (yam tyrosinase [2]) [µM] | Kd (yam tyrosinase [3]) [µM] | k a1 (yam tyrosinase [3]) | k a2 (yam tyrosinase [3]) | k d1 (yam tyrosinase [3]) [s⁻¹] | k d2 (yam tyrosinase [3]) [s⁻¹] |
| --- | --- | --- | --- | --- | --- | --- | --- | --- | --- | --- | --- | --- |
| CC(/C=C/C=C(\C)C(=O)O[C@@H]1O[C@H](CO[C@@H]2O[C@H](CO)[C@@H](O)[C@H](O)[C@H]2O)[C@@H](O)[C@H](O)[C@H]1O)=C\C=C\C=C(C)\C=C\C=C(/C)C(=O)O[C@@H]1O[C@H](CO[C@@H]2O[C@H](CO)[C@@H](O)[C@H](O)[C@H]2O)[C@@H](O)[C@H](O)[C@H]1O [Crocin, crocin] | 1660 | 224 ± 11 | 0.003525 ± 9.7e-05 | 0.5772 ± 0.025 | 0.006429 ± 0.00014 | 1700 | 1000 |  |  |  |  |  |
| Oc1ccc(O)cc1 [Hydroquinone, hydroquinone] |  | 2.89 ± 0.13 | 0.001569 ± 3.5e-05 | 0.9166 ± 0.02 | 0.005185 ± 0.00013 |  | 1500 |  |  |  |  |  |
| O=c1cc(CO)occ1O [Kojic acid] | 6.39 | 334 ± 16 | 0.00539 ± 7.8e-05 | 0.03182 ± 0.0013 |  |  | 0.1 |  |  |  |  |  |
| N[C@@H](Cc1ccc(O)c(O)c1)C(=O)O [L-DOPA, L-3 dihydroxyphenylalanine] |  |  |  |  |  |  |  | 1.35 | 9.54 × 10^4 1/ms | 0.001544 ± 1.50 × 10^4 1/s | 0.5089 ± 0.085 | 0.000523 ± 8.4e-05 |
